Data taken from patent US12528819B2 (priority 2016, dated 2026).
“Also recorded” adds a separate entry of the source.

Legend:
GABAA α5 receptor = biological target: T1, GABAA α5 receptor (Rattus norvegicus, UniProt P18508+P19969); test: GABAA α5 receptor occupancy with Ro 15-4513 tracer (hippocampus vs cerebellum); format: in vivo; settings: i.v.
T1 construct: from tissue; host or cells: rat brain in vivo; hippocampus versus cerebellum
Source text: Food and water were available ad libitum.

MAM-treated rats = settings: cited from earlier work
aged-impaired (AI) rats [1] = test: Radial Arm Maze (RAM) behavioral task, spatial memory retention; format: in vivo, rat; settings: four-hour delay
Protocol: The effects of methyl 3,5-diphenylpyridazine-4-carboxylate on the in vivo spatial memory retention of aged-impaired (AI) rats were assessed in a Radial Arm Maze (RAM) behavioral task using vehicle control and four different dosage levels of methyl 3,5-diphenylpyridazine-4-carboxylate (0.1 mg/kg, 0.3 mg/kg, 1 mg/kg and 3 mg/kg, ip). RAM behavioral tasks were performed on eight AI rats. All five treatment conditions (vehicle and four dosage levels) were tested on all eight rats.
The RAM apparatus used consisted of eight equidistantly-spaced arms. An elevated maze arm (7 cm width×75 cm length) projected from each facet of an octagonal center platform (30 cm diameter, 51.5 cm height). Clear side walls on the arms were 10 cm high and were angled at 65° to form a trough. A food well (4 cm diameter, 2 cm deep) was located at the distal end of each arm. Froot Loops™ (Kellogg Company) were used as rewards. Blocks constructed of Plexiglas™ (30 cm height×12 cm width) could be positioned to prevent entry to any arm. Numerous extra maze cues surrounding the apparatus were also provided.
The AI rats were initially subjected to a pre-training test (Chappell et al. Neuropharmacology 37: 481-487, 1998). The pre-training test consisted of a habituation phase (4 days), a training phase on the standard win-shift task (18 days) and another training phase (14 days) in which a brief delay was imposed between presentation of a subset of arms designated by the experimenter (e.g., 5 arms available and 3 arms blocked) and completion of the eight-arm win-shift task (i.e., with all eight arms available).
In the habituation phase, rats were familiarized to the maze for an 8-minute session on four consecutive days. In each of these sessions, food rewards were scattered on the RAM, initially on the center platform and arms and then progressively confined to the arms. After this habituation phase, a standard training protocol was used, in which a food pellet was located at the end of each arm. Rats received one trial each day for 18 days. Each daily trial terminated when all eight food pellets had been obtained or when either 16 choices were made or 15 minutes had elapsed. After completion of this training phase, a second training phase was carried out in which the memory demand was increased by imposing a brief delay during the trial. At the beginning of each trial, three arms of the eight-arm maze were blocked. Rats were allowed to obtain food on the five arms to which access was permitted during this initial “information phase” of the trial. Rats were then removed from the maze for 60 seconds, during which time the barriers on the maze were removed, thus allowing access to all eight arms. […]

aged-impaired (AI) rats [2] = test: Morris water maze behavioral task, ICV infusion; format: in vivo, rat; settings: 100 μg ICV
Protocol: The effects of 6,6 dimethyl-3-(3-hydroxypropyl)thio-1-(thiazol-2-yl)-6,7-dihydro-2-benzothiophen-4(5H)-one on the in vivo spatial memory retention of aged-impaired (AI) rats were assessed in a Morris water maze behavioral task. A water maze is a pool surrounded with a novel set of patterns relative to the maze.
Cognitively impaired aged rats were implanted unilaterally with a cannula into the lateral ventricle. Stereotaxic coordinates were 1.0 mm posterior to bregma, 1.5 mm lateral to midline, and 3.5 mm ventral to the skull surface. After about a week of recovery, the rats were pre-trained in a water maze for 2 days (6 trials per day) to locate a submerged escape platform hidden underneath the surface of the pool, in which the escape platform location varied from day to day. No intracerebroventricular (ICV) infusion was given during pre-training.
After pre-training, rats received ICV infusion of either 100 μg 6,6 dimethyl-3-(3-hydroxypropyl)thio-1-(thiazol-2-yl)-6,7-dihydro-2-benzothiophen-4(5H)-one (n=6) in 5 μl DMSO or vehicle DMSO (n=5) 40 min prior to water maze training and testing. Training consisted of 8 trials per day for 2 days where the hidden escape platform remained in the same location. Rats were given 60 seconds to locate the platform with a 60 seconds inter-trial interval. The rats were given a probe test (120 seconds) 24 hr. after the end of training where the escape platform was removed. During the training, there were 4 blocks, where each block had 4 training trials.
During a test trial 24 hr. after training, the escape platform was removed. The search/swim pattern of the rats was used to measure whether the rats remember where the escape platform was located during pre-trial training in order to test for the long-term memory of the rats. In this trial, “target annulus” is a designated area 1.5 times the size of the escape platform around the area where the platform was located during pre-trial training. “Opposite annulus” is a control area of the same size as the size of the target annulus, which is located opposite to the target annulus in the pool. If the rats had good long term memory, they would tend to search in the area surrounding the location where the platform was during the pre-trial training (i.e., the “target” annulus; and not the “opposite” annulus). “Time in annulus” is the amount of time in seconds that the rat spent in the target or opposite annulus area. “Number (#) of crossings” in annulus is the number of times the rat swam across the target or opposite annulus area.

α5β2γ2 subtype GABAAR = biological target: T2, α5β2γ2 subtype GABAAR (Homo sapiens, UniProt P18507+P31644); test: Positive allosteric modulator activity: potentiation of EC20 GABA current in oocytes; format: cell-based; settings: read-out: GABA α5 Functional Data (potentiation), @ 100 nM, reported as ranges
T2 construct: expressed in transfected cells
T2 sequence (P31644 32-462): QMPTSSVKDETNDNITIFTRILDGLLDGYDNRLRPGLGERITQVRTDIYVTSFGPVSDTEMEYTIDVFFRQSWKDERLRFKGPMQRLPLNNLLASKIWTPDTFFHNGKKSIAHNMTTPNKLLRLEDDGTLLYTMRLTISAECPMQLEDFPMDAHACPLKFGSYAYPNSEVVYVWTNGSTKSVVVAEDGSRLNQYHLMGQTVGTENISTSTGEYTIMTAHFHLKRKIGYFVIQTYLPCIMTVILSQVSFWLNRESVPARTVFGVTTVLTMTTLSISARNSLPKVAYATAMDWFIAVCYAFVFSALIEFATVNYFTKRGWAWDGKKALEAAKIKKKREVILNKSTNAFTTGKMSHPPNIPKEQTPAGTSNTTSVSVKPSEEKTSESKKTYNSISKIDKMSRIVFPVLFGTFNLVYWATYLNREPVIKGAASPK
T2 sequence (P47870 25-512 partner limits assumed): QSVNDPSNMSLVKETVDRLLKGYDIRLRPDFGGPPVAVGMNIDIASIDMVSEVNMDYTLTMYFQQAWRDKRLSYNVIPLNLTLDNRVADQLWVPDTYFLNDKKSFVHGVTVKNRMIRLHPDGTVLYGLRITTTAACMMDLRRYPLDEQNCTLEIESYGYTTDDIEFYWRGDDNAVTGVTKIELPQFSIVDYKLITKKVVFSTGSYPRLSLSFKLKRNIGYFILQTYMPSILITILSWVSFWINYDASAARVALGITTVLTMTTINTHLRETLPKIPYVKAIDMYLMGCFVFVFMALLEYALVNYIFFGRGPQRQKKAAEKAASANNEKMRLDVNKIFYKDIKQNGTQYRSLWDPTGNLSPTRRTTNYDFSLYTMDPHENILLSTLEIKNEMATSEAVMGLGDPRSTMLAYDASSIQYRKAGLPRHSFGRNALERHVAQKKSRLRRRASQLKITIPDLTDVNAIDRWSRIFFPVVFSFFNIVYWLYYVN
T2 sequence (P18507 40-467 limits assumed): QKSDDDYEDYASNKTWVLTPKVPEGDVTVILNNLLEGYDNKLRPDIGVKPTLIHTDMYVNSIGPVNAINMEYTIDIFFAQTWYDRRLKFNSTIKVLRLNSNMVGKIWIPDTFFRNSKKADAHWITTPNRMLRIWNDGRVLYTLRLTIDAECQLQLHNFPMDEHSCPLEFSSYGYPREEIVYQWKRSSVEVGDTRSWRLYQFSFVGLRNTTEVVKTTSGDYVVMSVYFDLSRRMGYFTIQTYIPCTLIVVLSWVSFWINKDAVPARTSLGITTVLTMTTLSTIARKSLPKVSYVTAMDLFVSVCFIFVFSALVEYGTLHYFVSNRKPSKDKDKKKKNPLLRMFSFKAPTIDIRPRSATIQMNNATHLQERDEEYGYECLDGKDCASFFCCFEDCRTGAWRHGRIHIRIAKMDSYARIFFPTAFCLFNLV
In short: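 Xenopus oocytes injected with 1 ng α5:β2:γ2 cDNA (1:1:10 by weight) and recorded on day 2 by two-electrode voltage clamp under MBS superfusion. Potentiation (%) = Itest/IGABA at EC20 GABA; each oocyte used for one concentration only.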

[3] = probe test 24 hr. after training

T1 sequence (P19969 32-464 limits assumed): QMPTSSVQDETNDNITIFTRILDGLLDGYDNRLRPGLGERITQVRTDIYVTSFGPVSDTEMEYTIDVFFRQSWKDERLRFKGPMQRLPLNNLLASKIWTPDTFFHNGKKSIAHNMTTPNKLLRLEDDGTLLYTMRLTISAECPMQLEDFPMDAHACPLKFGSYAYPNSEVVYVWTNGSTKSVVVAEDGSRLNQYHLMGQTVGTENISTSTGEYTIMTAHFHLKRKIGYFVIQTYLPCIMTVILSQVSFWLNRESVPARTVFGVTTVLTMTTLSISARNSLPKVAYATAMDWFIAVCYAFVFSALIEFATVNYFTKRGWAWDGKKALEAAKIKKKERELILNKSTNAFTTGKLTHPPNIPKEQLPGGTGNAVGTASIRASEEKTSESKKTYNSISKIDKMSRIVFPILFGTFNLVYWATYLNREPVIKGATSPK
T1 sequence (P18508 39-466): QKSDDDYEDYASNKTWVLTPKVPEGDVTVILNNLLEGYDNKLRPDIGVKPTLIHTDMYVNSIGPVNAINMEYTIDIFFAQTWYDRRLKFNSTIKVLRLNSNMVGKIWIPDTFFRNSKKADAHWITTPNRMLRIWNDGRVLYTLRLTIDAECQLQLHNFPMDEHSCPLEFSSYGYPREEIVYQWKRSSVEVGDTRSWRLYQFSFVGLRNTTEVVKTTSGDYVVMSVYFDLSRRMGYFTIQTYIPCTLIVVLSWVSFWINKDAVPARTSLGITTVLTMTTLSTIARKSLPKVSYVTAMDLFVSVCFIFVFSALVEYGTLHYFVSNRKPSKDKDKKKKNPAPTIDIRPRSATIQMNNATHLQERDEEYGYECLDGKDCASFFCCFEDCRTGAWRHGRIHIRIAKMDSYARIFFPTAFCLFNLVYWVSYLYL

## CCOC(=O)c1ncn2c1CN(C)C(=O)c1cc(N=[N+]=[N-])ccc1-2 [Ro 15-4513]
GABAA α5 receptor; tracer 1 μg/kg, after vehicle administration
  levels of Ro 15-4513 in hippocampus compared with cerebellum: > 5 fold

## C#Cc1ccc2c(c1)C(c1ccccc1F)=N[C@H](C)c1c(C(=O)OCC)ncn1-2 [SH-053-2′F—R—CH3]
MAM-treated rats; MAM rats, systemic or infused into ventral HPC, to levels of saline-treated rats
  number of spontaneously active DA neurons in the ventral tegmental area (VTA): reduces
MAM-treated rats; MAM-treated rats
  increased locomotor response to amphetamine: reduced
MAM-treated rats; saline-treated and MAM-treated animals
  cortical-evoked responses of HPC neurons: diminished

## CCOC(=O)c1ncn2c1Cn1c(C)nnc1-c1cc(OC)ccc1-2
aged-impaired (AI) rats [1]; 3 mg/kg, t(7)=4.13, p=0.004, or t(7)=3.08, p=0.018
  memory performance relative to vehicle control: significantly improved memory performance
aged-impaired (AI) rats [1]; 10 mg/kg, p 0.026
  memory performance relative to vehicle control: significantly improved memory performance
GABAA α5 receptor; 0.01-10 mg/kg
  effect on Ro 15-4513 binding in hippocampus: reduced; also recorded: blocked
  effect on Ro 15-4513 levels (binding) in cerebellum: without affecting; also recorded: did not affect
GABAA α5 receptor; 10 mg/kg
  GABAA α5 receptor occupancy: > 90%

## CC1(C)CC(=O)c2c(SCCCO)sc(-c3nccs3)c2C1 [6,6 dimethyl-3-(3-hydroxypropyl)thio-1-(thiazol-2-yl)-6,7-dihydro-2-benzothiophen-4(5H)-one]
aged-impaired (AI) rats [2]; beginning of training (block 1)
  time to find the escape platform: about 24 seconds
aged-impaired (AI) rats [2]; end of training (block 4)
  time to find the escape platform: about 9.6 seconds
aged-impaired (AI) rats [2]; [3]
  number of crossings of target annulus compared to opposite annulus: more often
  time in target annulus compared to opposite annulus: significantly more time in the target annulus

## COc1ccc2c(c1)-n1nncc1Cc1c(C#CCc3cccc(Cl)c3)ncn1-2 [Compound 417]
α5β2γ2 subtype GABAAR
  activation at 0.1 µM: 5 to 20%

## COc1ccc2c(c1)-n1nnc(COc3ccccc3)c1Cc1c(-c3noc(C)n3)ncn1-2 [Compound 182]
α5β2γ2 subtype GABAAR
  activation at 0.1 µM: 20 to 50%

## CCOCc1nnc2n1Cc1c(C3=N[C@H](c4ccccc4)CO3)ncn1-c1ccc(Cl)cc1-2 [Compound 271]
α5β2γ2 subtype GABAAR
  activation at 0.1 µM: > 50%

## COc1ccc2c(c1)-c1nnc(COCc3cccc(F)c3)n1Cc1c(-c3noc(C(C)C)n3)ncn1-2 [Compound 183]
α5β2γ2 subtype GABAAR
  activation at 0.1 µM: 20 to 50%

## COCc1nnc2n1Cc1c(C3=N[C@@H](c4ccccc4C)CO3)ncn1-c1ccc(Cl)cc1-2 [Compound 330]
α5β2γ2 subtype GABAAR
  activation at 0.1 µM: 20 to 50%

## COc1ccc2c(c1)-n1nnc(Cc3cccnc3)c1Cc1c(C#N)ncn1-2 [Compound 210]
α5β2γ2 subtype GABAAR
  activation at 0.1 µM: 20 to 50%
